{"source": "patent US20190376142A1", "about": "“METHOD TO DISTINGUISH TUMOR SUPRESSIVE FOXO ACTIVITY FROM OXIDATIVE STRESS” (KONINKLIJKE PHILIPS N.V., priority 2016, published 2019)", "key": {"[1]": {"tested_on": "FOXO activity in BT20 (triple-negative breast cancer cell line)", "test": "Computational FOXO model on Erlotinib-treated BT20 cells (GSE30516)", "settings": "BT20 treated with Erlotinib; public dataset GSE30516", "method": "(§1) Public datasets from samples that were treated with drugs targeting growth factor pathways. A. GEO GSE51212. […] B. GEO GSE30516 dataset.\n(§2) Once the model has been calibrated, it could be used on microarray (Affymetrix HG-U133Plus2.0) data of new tumor samples by entering probeset measurements as observations in the bottom layer, and inferring backwards in the model the activity probability of the FOXO3 transcription factor. The model was frozen and applied to microarray data of cell line and tissue samples by entering probeset measurements as observations into the model, inferring backwards FOXO transcription factor activity score as the log-2 value of the FOXO transcription factor odds p/(1−p).\n(§3) Parameters enforcing relationships between the FOXO transcription complex and target genes were manually set to improve generalization behavior of the model across different tissue types (11). Parameters describing relationships between target genes and their respective probe sets were calibrated on a public data set of Human Umbilical Vein Endothelial Cells (HUVEC) carrying inducible constitutively active FOXO3.A3-ER, and a threshold for FOXO-activity was set (GSE16573) (20)."}, "[2]": {"tested_on": "FOXO activity in MDA-MB-453 (HER2 positive breast cancer cell line)", "test": "Computational FOXO model on Erlotinib-treated MDA-MB-453 cells (GSE30516)", "settings": "MDA-MB-453 treated with Erlotinib; public dataset GSE30516", "method": "as §1, §2, §3"}, "[3]": {"tested_on": "FOXO activity in MCF7 (ER positive breast cancer cell line)", "test": "Computational FOXO model on Erlotinib-treated MCF7 cells (GSE30516)", "settings": "MCF7 treated with Erlotinib; public dataset GSE30516", "method": "as §1, §2, §3"}, "[4]": {"tested_on": "FOXO3 activity in EGFR-mutant HCC827 lung cancer cell line", "test": "Computational FOXO model on drug-treated HCC827 cells (GSE51212)", "settings": "HCC827 treated with drug vs untreated (FOXO scored inactive); public dataset GSE51212", "method": "as §1, §2, §3"}, "[5]": {"tested_on": "FOXO activity in Human Umbilical Vein Endothelial Cells (HUVEC)", "test": "Computational FOXO model on HUVEC with 4OHT-inducible FOXO3.A3-ER (GSE16573)", "assay_type": "cell-based", "description": "A. The Bayesian network structure used as a basis for the modeling approach shown as a simplified model of the transcriptional program of a cellular signal transduction pathway, consisting of three types of nodes: transcription factor, target gene and microarray probe sets corresponding to target genes. B. Training of the computational FOXO3 model on a public GEO dataset GSE16573, consisting of Affymetrix microarray 2.0 Plus expression data from HUVEC containing a 4OHT-inducible FOXO3.A3-ER expression construct. Each bar represents a sample analysis result.\nThe probabilistic relations in the Bayesian network model were made quantitative using experimental data to enable quantitative reasoning on new experimental samples."}}}
{"smiles": "C#Cc1cccc(Nc2ncnc3cc(OCCOC)c(OCCOC)cc23)c1", "note": "[Erlotinib]", "values": [{"measurement": "FOXO activity score", "setting": "[1]", "value": "increased"}, {"measurement": "FOXO activity score", "setting": "[2]", "value": "increased"}, {"measurement": "FOXO activity score", "setting": "[3]", "value": "increased"}]}
{"smiles": "Cn1c(=O)n(-c2ccc(C(C)(C)C#N)cc2)c2c3cc(-c4cnc5ccccc5c4)ccc3ncc21", "note": "[BEZ235]", "values": [{"measurement": "FOXO3 activity scored by the FOXO model", "setting": "[4]", "value": "scored active"}]}
{"smiles": "CC/C(=C(\\c1ccc(O)cc1)c1ccc(OCCN(C)C)cc1)c1ccccc1", "note": "[4OHT]", "values": [{"measurement": "FOXO activity predicted by the Bayesian model", "setting": "[5]; HUVEC-FOXO3.A3-ER treated with 4OHT", "value": "highly active FOXO"}, {"measurement": "FOXO activity predicted by the Bayesian model", "setting": "[5]; HUVECs expressing FOXO3.A3-ER-H212R (reduced DNA binding) treated with 4OHT", "value": "low FOXO3 activity"}, {"measurement": "FOXO activity predicted by the Bayesian model", "setting": "[5]; HUVECs without construct, treated with 4OHT", "value": "low FOXO activity"}]}
